# Source: paper PMC8434401, “Trifluoromethylated Flavonoid-Based Isoxazoles as Antidiabetic and Anti-Obesity Agents: Synthesis, In Vitro α-Amylase Inhibitory Activity, Molecular Docking and Structure–Activity Relationship Analysis” (Molecules, 2021)
# Like-named read-outs stand apart in the source and are kept apart here.
# Experiments:
# [1] = molecular target: Aspergillus oryzae α-amylase (Aspergillus oryzae, UniProt P0C1B3); experiment: biochemical; settings: for inhibition at 50 µM: read-out: α-Amylase Inhibition PI ± SEM% (percentage inhibition)
# Method: The α-amylase inhibition assays were carried out according to the protocol described by Chortani et al. (2021), with some modifications. In short, all of the compounds were dissolved in DMSO and then diluted in sodium phosphate buffer (0.02 M, pH 6.9 with 0.006 M NaCl). […] The samples were tested at different concentrations of 50, 25, 12.5, and 6.25 μM. After that, 50 μL of the sample solution was added to 50 μL of Aspergillus oryzae α-amylase solution (0.5 mg/mL) dissolved in the same buffer medium. After pre-incubation for 10 min at 25 °C, 50 μL of starch solution (1% in buffer solution) was added to the mixture. After 10 min of incubation at 25 °C, the product of the reaction was mixed with 100 μL of 3,5-dinitrosalicylic acid solution. At this point, the test tubes were placed for 5 min in a boiling water bath (100 °C), followed by cooling to room temperature. Next, each solution was diluted with 1 mL of distilled water. Over time, the absorbance was measured at 540 nm using a Thermo Scientific™ Multiskan™ GO Microplate Spectrophotometer using a 96-well microplate.
# The α-amylase inhibitory activity was determined as follows:PI (%) = 100[(AbsControl−AbsSample)/(AbsControl)] where AbsControl is the absorbance of the solution without sample (buffer instead of the sample solution) and AbsSample is the absorbance of the mixture with the solution of the sample to be tested. […] Each assay was conducted in triplicate.
# [2] = Table S1, from the concentration-response curves used to calculate the IC50 values (concentrations in μM), read-out: log(IC50) (converted)
# [3] = potency, concentration providing 50% inhibition, mean ± SEM, triplicate, read-out: α-Amylase Inhibition IC50 ± SEM
Structure (SMILES),inhibition at 50 µM [1],"IC50 [1, 2]","IC50 [1, 3]",melting point
"C[C@H]1O[C@H](O[C@H]2[C@H](O)[C@@H](O)[C@@H](O[C@H]3[C@H](O)[C@@H](O)C(O)O[C@@H]3CO)O[C@@H]2CO)[C@H](O)[C@@H](O)[C@@H]1N[C@H]1C=C(CO)[C@@H](O)[C@H](O)[C@H]1O (stereo partly shown) [Acarbose, reference compound]",97.8 ± 0.5%,,,
"O=c1c(O)c(-c2ccc(C(F)(F)F)cc2)oc2ccc(Cl)cc12 [Compound 1, 6-Chloro-3-hydroxy-2-(4-(trifluoromethyl)phenyl)-4H-chromen-4-one]",75.2 ± 1.4%,15.3 µM,15.3 ± 0.4 µM,275 °C
"C#CCOc1c(-c2ccc(C(F)(F)F)cc2)oc2ccc(Cl)cc2c1=O [Compound 2, 6-Chloro-3-(prop-2-yn-1-yloxy)-2-(4-(trifluoromethyl)phenyl)-4H-chromen-4-one]",75.2 ± 0.3%,17.7 µM,17.7 ± 0.2 µM,122 °C
"O=c1c(OCc2cc(-c3ccccc3)no2)c(-c2ccc(C(F)(F)F)cc2)oc2ccc(Cl)cc12 [Compound 3a, 6-Chloro-3-((3-phenylisoxazol-5-yl)methoxy)-2-(4-(trifluoromethyl)phenyl)-4H-chromen-4-one]",65.6 ± 0.2%,27.2 µM,27.2 ± 0.7 µM,134 °C
"O=c1c(OCc2cc(-c3ccc(F)cc3)no2)c(-c2ccc(C(F)(F)F)cc2)oc2ccc(Cl)cc12 [Compound 3b, 6-Chloro-3-((3-(4-fluorophenyl)isoxazol-5-yl)methoxy)-2-(4-(trifluoromethyl)phenyl)-4H-chromen-4-one]",94.7 ± 1.2%,12.6 µM,12.6 ± 0.2 µM,147 °C
"O=c1c(OCc2cc(-c3ccc(Cl)cc3)no2)c(-c2ccc(C(F)(F)F)cc2)oc2ccc(Cl)cc12 [Compound 3c, 6-Chloro-3-((3-(4-chlorophenyl)isoxazol-5-yl)methoxy)-2-(4-(trifluoromethyl)phenyl)-4H-chromen-4-one]",87.1 ± 0.7%,14.4 µM,14.4 ± 0.2 µM,177 °C
"O=c1c(OCc2cc(-c3ccc(Br)cc3)no2)c(-c2ccc(C(F)(F)F)cc2)oc2ccc(Cl)cc12 [Compound 3d, 3-((3-(4-Bromophenyl)isoxazol-5-yl)methoxy)-6-chloro-2-(4-(trifluoromethyl)phenyl)-4H-chromen-4-one]",85.4 ± 0.9%,14.6 µM,14.6 ± 0.3 µM,179 °C
"Cc1ccc(-c2cc(COc3c(-c4ccc(C(F)(F)F)cc4)oc4ccc(Cl)cc4c3=O)on2)cc1 [Compound 3e, 6-Chloro-3-((3-(p-tolyl)isoxazol-5-yl)methoxy)-2-(4-(trifluoromethyl)phenyl)-4H-chromen-4-one]",65.4 ± 0.4%,26 µM,26 ± 0.7 µM,171 °C
"CC(C)(C)c1ccc(-c2cc(COc3c(-c4ccc(C(F)(F)F)cc4)oc4ccc(Cl)cc4c3=O)on2)cc1 [Compound 3f, 3-((3-(4-(Tert-butyl)phenyl)isoxazol-5-yl)methoxy)-6-chloro-2-(4-(trifluoromethyl)phenyl)-4H-chromen-4-one]",64.5 ± 0.7%,27.6 µM,27.6 ± 1.1 µM,112 °C
"O=c1c(OCc2cc(-c3ccc([N+](=O)[O-])cc3)no2)c(-c2ccc(C(F)(F)F)cc2)oc2ccc(Cl)cc12 [Compound 3g, 6-Chloro-3-((3-(4-nitrophenyl)isoxazol-5-yl)methoxy)-2-(4-(trifluoromethyl)phenyl)-4H-chromen-4-one]",74.7 ± 0.3%,18.1 µM,18.1 ± 0.3 µM,175 °C
"COc1ccc(-c2cc(COc3c(-c4ccc(C(F)(F)F)cc4)oc4ccc(Cl)cc4c3=O)on2)cc1 [Compound 3h, 6-Chloro-3-((3-(4-methoxyphenyl)isoxazol-5-yl)methoxy)-2-(4-(trifluoromethyl)phenyl)-4H-chromen-4-one]",93.5 ± 1.1%,13.3 µM,13.3 ± 0.2 µM,152 °C
"CCCCOc1ccc(-c2cc(COc3c(-c4ccc(C(F)(F)F)cc4)oc4ccc(Cl)cc4c3=O)on2)cc1 [Compound 3i, 3-((3-(4-Butoxyphenyl)isoxazol-5-yl)methoxy)-6-chloro-2-(4-(trifluoromethyl)phenyl)-4H-chromen-4-one]",79.4 ± 1%,15.6 µM,15.6 ± 0.2 µM,130 °C
"CCCCOc1ccc(-c2cc(COc3c(-c4ccc(C(F)(F)F)cc4)oc4ccc(Cl)cc4c3=O)on2)cc1Cl [Compound 3j, 3-((3-(4-Butoxy-3-chlorophenyl)isoxazol-5-yl)methoxy)-6-chloro-2-(4-(trifluoromethyl)phenyl)-4H-chromen-4-one]",93.1 ± 0.9%,13.7 µM,13.7 ± 0.2 µM,134 °C
"COc1ccc(-c2cc(COc3c(-c4ccc(C(F)(F)F)cc4)oc4ccc(Cl)cc4c3=O)on2)cc1Cl [Compound 3k, 6-Chloro-3-((3-(3-chloro-4-methoxyphenyl)isoxazol-5-yl)methoxy)-2-(4-(trifluoromethyl)phenyl)-4H-chromen-4-one]",72.5 ± 1.1%,21 µM,21 ± 0.6 µM,141 °C
"COc1ccc(-c2cc(COc3c(-c4ccc(C(F)(F)F)cc4)oc4ccc(Cl)cc4c3=O)on2)cc1Br [Compound 3l, 3-((3-(3-Bromo-4-methoxyphenyl)isoxazol-5-yl)methoxy)-6-chloro-2-(4-(trifluoromethyl)phenyl)-4H-chromen-4-one]",70.4 ± 0.4%,23 µM,23 ± 0.2 µM,144 °C
"COc1ccc(-c2cc(COc3c(-c4ccc(C(F)(F)F)cc4)oc4ccc(Cl)cc4c3=O)on2)cc1OC [Compound 3m, 6-Chloro-3-((3-(3,4-dimethoxyphenyl)isoxazol-5-yl)methoxy)-2-(4-(trifluoromethyl)phenyl)-4H-chromen-4-one]",93.3 ± 2%,13.8 µM,13.8 ± 0.1 µM,152 °C
